{"source": "patent US8674085B2", "about": "“2′-branched nucleosides and Flaviviridae mutation” (priority 2002, dated 2014)", "key": {"HCV": {"test_system": "HCV", "conditions": "ribavirin alone; cited from earlier work"}, "[1]": {"test_system": "BVDV strain I-N-dIns (wild type)", "test": "microbe, parasite or virus in culture", "type": "cell-based, bovine viral diarrhea virus", "procedure": "(§1) To conduct the virus focus assay, MDBK cells were seeded onto 6-well plates containing 2×10^5 cells per well and grown at 37° C./5% CO2 for at least 5 hours before use. The test samples (culture supernatants combined with cell monolayers) were frozen/thawed twice, serially diluted by 10-fold in medium, and used to inoculate test cells in 6-well plates at 0.2 mL per well. The inoculum was removed after 1 hour of adsorption, and the cells were overlaid with 3 mL of 0.5% agarose in complete growth medium (1× DMEM (Cellgro), supplemented with 8% horse serum, penicillin, streptomycin, L-glutamine, sodium pyruvate, and 25 mM HEPES). After 3 days of incubation at 37° C./5% CO2, the plates were fixed for 1 hour with 3 mL of 7.4% formaldehyde in PBS, and washed with PBS. The cell monolayers were permeabilized with 1 mL of PBS-0.25% Triton X-100 per well for 10 minutes, and incubated with 0.5 mL of goat anti-BVDV antiserum (VMDR, Inc.; diluted 1:1000 in PBS-0.25% Triton X-100) for 1 hour. The antiserum was then removed, and cell monolayers were washed with PBS (twice for 15 min) and incubated with 0.5 mL of peroxidase-conjugated donkey anti-goat antibody (diluted 1:1000 in PBS-0.25% Triton X-100) for another 1 hour. After the antibody was removed, the cell monolayers were washed with PBS (twice for 15 min), and incubated with 0.5 mL of diaminobenzidine (DAB) peroxidase substrate solution (Vector Laboratories) at room temperature until virus foci become visible (approximately 15 minutes). All incubations were carried out with rocking. The staining was stopped by washing with water and the plates were allowed to air dry. Virus titers were calculated in FFU/mL, using the following equation: TFFU/mL=N×5×D; where T is a virus titer in FFU/mL; N is a number of foci per well; and D is a dilution factor for the corresponding virus sample.\n(§2) To conduct the virus yield reduction assay, MDBK cells were seeded onto 24-well plates (1×10^5 cells per well) and grown at 37° C./5% CO2 overnight. […] The virus titer in the cell culture was quantified by focus assay as described above. […]"}, "[2]": {"test_system": "BVDV (strain I-N-dIns) in persistently infected MDBK cells", "test": "Passaging of persistently infected MDBK cells with 8 μM β-D-2′-CH3-riboC (isolation of resistant BVDV)", "type": "cell-based, bovine viral diarrhea virus", "procedure": "(§3) Persistent BVDV infection was established in MDBK cell line (ATCC, Manassas, Va., Catalog #: CCL-22) by in vitro infection of naive cells with a noncytophatic (ncp) BVDV (strain I-N-dIns; Dr. R. Donis, U. of Nebraska, Lincoln, Nebr.). The multiplicity of infection (MOI) was 0.01. Cells were passaged twice per week (splitting ratio 1:15) until the stable high-level of infection (10^6-10^7 focus forming units (FFU) per mL) was achieved, as was determined by a focus assay. Next, the persistently infected cells were grown in 6-well culture plates with 8 μM or without β-D-2′-CH3-riboC (Idenix Pharmaceuticals). Cell cultures were passaged every three to four days by splitting with a ratio of 1:15 to 1:20. After eight passages, cell cultures grown in the presence of β-D-2′-CH3-riboC were expanded to T-75 culture flask, freeze/thawed twice, and used as a virus stock of β-D-2′-CH3-riboC-resistant BVDV for further characterization. The virus titers in cell cultures were monitored at the end of each passage by the virus focus assay.\nTo conduct the virus focus assay, MDBK cells were seeded onto 6-well plates containing 2×10^5 cells per well and grown at 37° C./5% CO2 for at least 5 hours before use. The test samples (culture supernatants combined with cell monolayers) were frozen/thawed twice, serially diluted by 10-fold in medium, and used to inoculate test cells in 6-well plates at 0.2 mL per well. The inoculum was removed after 1 hour of adsorption, and the cells were overlaid with 3 mL of 0.5% agarose in complete growth medium (1× DMEM (Cellgro), supplemented with 8% horse serum, penicillin, streptomycin, L-glutamine, sodium pyruvate, and 25 mM HEPES). After 3 days of incubation at 37° C./5% CO2, the plates were fixed for 1 hour with 3 mL of 7.4% formaldehyde in PBS, and washed with PBS. […] Virus titers were calculated in FFU/mL, using the following equation: TFFU/mL=N×5×D; where T is a virus titer in FFU/mL; N is a number of foci per well; and D is a dilution factor for the corresponding virus sample. […]"}, "[3]": {"test_system": "BVDV I-N-dIns β-D-2′-CH3-riboC-R (β-D-2′-CH3-riboC-resistant BVDV)", "test": "BVDV virus yield reduction assay in de novo-infected MDBK cells", "type": "cell-based, bovine viral diarrhea virus", "procedure": "as §1\nTo conduct the virus yield reduction assay, MDBK cells were seeded onto 24-well plates (1×10^5 cells per well) and grown at 37° C./5% CO2 overnight. Cells were infected with BVDV at a multiplicity of infection of 0.1. After 1-hour adsorption, the inoculum was removed, and cells were washed with PBS and then overlaid with 1 mL of fresh growth medium, containing serial 2-fold dilutions of the test compound (0-32 μM for β-D-2′-CH3-riboC and 0-800 IU/mL for Intron®A). After incubation at 37° C./5% CO2 for 48 hours, the plates were frozen/thawed at −70° C. twice to lyse the cell cultures. The virus titer in the cell culture was quantified by focus assay as described above. […] The EC50, EC90 and EC4-log values were derived by curve fitting using XLFit software."}, "[4]": {"test_system": "BVDV (strain I-N-dIns) in persistently infected MDBK cells", "test": "Single or double treatment of persistently infected MDBK cells, virus titers by focus assay", "type": "cell-based, bovine viral diarrhea virus", "conditions": "for log value of the BVDV titer: 0 IU/mL Interferon alpha-2b; for reduction of viral titers: single treatment, 7 days", "procedure": "as §3, with “After eight passages, cell cultures grown in the presence of β-D-2′-CH3-riboC were expanded to T-75 culture flask, freeze/thawed twice, and used as a virus stock of β-D-2′-CH3-riboC-resistant BVDV for further characterization.” left out\nas §1\nThe effect of Intron A, alone or in combination with β-D-2′-CH3-riboC, on the wild type BVDV was further studied in the persistently infected MDBK cells. In one experimental setting, the virus titers were determined after 7 days (two passages) of single or double treatment with several inhibitor concentrations."}, "BVDV strain I-NADL": {"test_system": "BVDV strain I-NADL", "test": "BVDV virus yield reduction assay", "type": "cell-based, bovine viral diarrhea virus", "conditions": "cp", "procedure": "as §1, with “sample. […]” for “sample.”\nas §2"}, "[5]": {"conditions": "Bovine viral diarrhea virus isolates and strains, MDBK, BVDV strain I-N-dIns β-D-2′-CH3-riboC-R, ncp, 48 hours"}, "[6]": {"conditions": "Bovine viral diarrhea virus isolates and strains"}}, "data": [{"smiles": "NC(=O)c1ncn([C@@H]2O[C@H](CO)[C@@H](O)[C@H]2O)n1", "note": "[Ribavirin, 1-β-D-ribofuranosyl-1-1,2,4-triazole-3-carboxamide]", "values": [{"measurement": "serum amino transferase levels reduced to normal, share of patients", "setting": "HCV", "result": 40, "unit": "%"}]}, {"smiles": "CC1(O)C(O)[C@@H](CO)O[C@H]1n1ccc(N)nc1=O", "note": "(stereo partly drawn) [β-D-2′-CH3-riboC]", "values": [{"measurement": "EC4 log", "setting": "[1]; BVDV strain I-N-dIns, ncp, concentration reducing viral titer by 99.99%, 48 hours", "result": "7.14±1.26", "unit": "μM"}, {"measurement": "EC50", "setting": "[1]; Bovine viral diarrhea virus isolates and strains, MDBK, BVDV strain I-N-dIns, ncp, concentration reducing viral titer by 50%, 48 hours", "result": "590 ± 120", "unit": "nM"}, {"measurement": "virus titers", "setting": "[1]; at 16 μM, wild type virus, below the detection limit", "result": "< 10", "unit": "FFU/mL"}, {"measurement": "virus titer plateau after reappearance of virus", "setting": "[2]; additional passaging in the presence of the inhibitor (virus reappeared at passage 3 to 5)", "result": "10^5 FFU/mL"}, {"measurement": "virus detection in culture", "setting": "[2]; after two passages", "result": "no longer detectable"}, {"measurement": "difference in virus titers versus untreated culture", "setting": "[2]; observed even after 28 days of treatment", "result": "~10", "unit": "fold"}, {"measurement": "EC4 log", "setting": "[3]; BVDV strain I-N-dIns β-D-2′-CH3-riboC-R, ncp, 48 hours", "result": ">32", "unit": "μM"}, {"measurement": "EC50", "setting": "[3]; [5]", "result": "> 32000", "unit": "nM"}, {"measurement": "EC90", "setting": "[3]; [5]", "result": "> 32000", "unit": "nM"}, {"measurement": "fold more resistant to the inhibitor than the wild type virus", "setting": "[3]; based on the EC50 values of the virus yield reduction assay", "result": "at least 54 fold"}, {"measurement": "effect on the resistant virus yield", "setting": "[3]; highest concentration tested (32 μM)", "result": "no effect"}, {"measurement": "log value of the BVDV titer", "setting": "[4]; 2 μM β-D-2′-CH3-riboC, 7 days (two passages)", "result": 5.10, "unit": "log"}, {"measurement": "log value of the BVDV titer", "setting": "[4]; 4 μM β-D-2′-CH3-riboC, 7 days (two passages)", "result": 4.55, "unit": "log"}, {"measurement": "reduction of virus titer", "setting": "[4]; 8 μM β-D-2′-CH3-riboC alone, 7 days (two passages)", "result": 6.2, "unit": "logs"}, {"measurement": "log value of the BVDV titer", "setting": "[4]; 8 μM β-D-2′-CH3-riboC, 7 days (two passages)", "result": 0.40, "unit": "log"}, {"measurement": "reduction of viral titers", "setting": "[4]; 2 μM β-D-2′-CH3-riboC", "result": 1.61, "unit": "logs"}, {"measurement": "reduction of viral titers", "setting": "[4]; 4 μM β-D-2′-CH3-riboC", "result": 2.06, "unit": "logs"}, {"measurement": "EC50", "setting": "BVDV strain I-NADL; [6]", "result": "680 ± 80", "unit": "nM"}, {"measurement": "EC90", "setting": "BVDV strain I-NADL; [6]", "result": "1730 ± 110", "unit": "nM"}, {"measurement": "EC4 log", "setting": "BVDV strain I-NADL", "result": "8.22 ± 0.05", "unit": "μM"}]}]}
